# Measurements reported in PubChem BioAssay (NCI).
#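 Where inhibition never reached the appropriate level, the endpoint shown equals the highest concentration tested. Otherwise, values were interpolated linearly from a five-concentration, 48-hour dose response in 96-well plates. At the TGI there is no net growth.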
# What was measured:
# Test in all cases: growth of human tumour cells (NCI), 48 h
# M19-MEL melanoma = test system: M19-MEL melanoma
# SF-539 CNS = test system: SF-539 CNS
# A498 renal = test system: A498 renal
# DMS 114 small cell lung = test system: DMS 114 small cell lung
# OVCAR-8 ovarian = test system: OVCAR-8 ovarian
# K-562 leukemia = test system: K-562 leukemia
# HCT-116 colon = test system: HCT-116 colon
# HCT-15 colon = test system: HCT-15 colon
# TK-10 renal = test system: TK-10 renal
# NCI-H23 lung = test system: NCI-H23 lung
# SK-MEL-28 melanoma = test system: SK-MEL-28 melanoma
# SF-268 CNS = test system: SF-268 CNS
# A549 NSCLC = test system: A549 NSCLC
# LXFL 529 NSCLC = test system: LXFL 529 NSCLC
# SNB-78 CNS = test system: SNB-78 CNS
# SNB-19 CNS = test system: SNB-19 CNS
# NCI-H460 lung = test system: NCI-H460 lung
# MOLT-4 leukemia = test system: MOLT-4 leukemia
# SK-MEL-2 melanoma = test system: SK-MEL-2 melanoma
# XF 498 CNS = test system: XF 498 CNS
# 786-0 renal = test system: 786-0 renal
# OVCAR-5 ovarian = test system: OVCAR-5 ovarian
# HOP-18 NSCLC = test system: HOP-18 NSCLC
# CCRF-CEM leukemia = test system: CCRF-CEM leukemia
# UO-31 renal = test system: UO-31 renal
# SN12C renal = test system: SN12C renal
# U251 CNS = test system: U251 CNS
# SNB-75 CNS = test system: SNB-75 CNS
# SF-295 CNS = test system: SF-295 CNS
# DLD-1 colon = test system: DLD-1 colon
# LOX IMVI melanoma = test system: LOX IMVI melanoma
# COLO 205 colon = test system: COLO 205 colon
# ACHN renal = test system: ACHN renal
# UACC-257 melanoma = test system: UACC-257 melanoma
# KM12 colon = test system: KM12 colon
# SR leukemia = test system: SR leukemia
# MALME-3M melanoma = test system: MALME-3M melanoma
# HOP-92 NSCLC = test system: HOP-92 NSCLC
# HT29 colon = test system: HT29 colon
# RXF-631 renal = test system: RXF-631 renal
# SW-620 colon = test system: SW-620 colon
# HCC-2998 colon = test system: HCC-2998 colon
# HL-60(TB) leukemia = test system: HL-60(TB) leukemia
# KM20L2 colon = test system: KM20L2 colon
# EKVX NSCLC = test system: EKVX NSCLC
# UACC-62 melanoma = test system: UACC-62 melanoma
# SK-MEL-5 melanoma = test system: SK-MEL-5 melanoma
# RPMI-8226 leukemia = test system: RPMI-8226 leukemia
# IGROV1 ovarian = test system: IGROV1 ovarian
# M14 melanoma = test system: M14 melanoma
# NCI-H522 lung = test system: NCI-H522 lung
# OVCAR-3 ovarian = test system: OVCAR-3 ovarian
# OVCAR-4 ovarian = test system: OVCAR-4 ovarian
# SK-OV-3 ovarian = test system: SK-OV-3 ovarian
# CAKI-1 renal = test system: CAKI-1 renal
# DMS 273 small cell lung = test system: DMS 273 small cell lung
# HOP-62 NSCLC = test system: HOP-62 NSCLC
structure (smiles),measurement,setting,value
O=C1C2C3C=C4c5ccccc5N(c5ccccc5)C4(C2C(=O)N1Cc1ccccc1)C1C(=O)N(Cc2ccccc2)C(=O)C31 (stereo unspecified),TGI,M19-MEL melanoma,> 100 µM
same,TGI,SF-539 CNS,> 100 µM
same,TGI,A498 renal,> 100 µM
same,TGI,DMS 114 small cell lung,> 100 µM
same,TGI,OVCAR-8 ovarian,> 100 µM
same,TGI,K-562 leukemia,> 100 µM
same,TGI,HCT-116 colon,> 100 µM
same,TGI,HCT-15 colon,> 100 µM
same,TGI,TK-10 renal,> 100 µM
same,TGI,NCI-H23 lung,> 100 µM
same,TGI,SK-MEL-28 melanoma,> 100 µM
same,TGI,SF-268 CNS,> 100 µM
same,TGI,A549 NSCLC,> 100 µM
same,TGI,LXFL 529 NSCLC,> 100 µM
same,TGI,SNB-78 CNS,> 100 µM
same,TGI,SNB-19 CNS,> 100 µM
same,TGI,NCI-H460 lung,> 100 µM
same,TGI,MOLT-4 leukemia,> 100 µM
same,TGI,SK-MEL-2 melanoma,> 100 µM
same,TGI,XF 498 CNS,> 100 µM
same,TGI,786-0 renal,> 100 µM
same,TGI,OVCAR-5 ovarian,> 100 µM
same,TGI,HOP-18 NSCLC,> 100 µM
same,TGI,CCRF-CEM leukemia,> 100 µM
same,TGI,UO-31 renal,> 100 µM
same,TGI,SN12C renal,> 100 µM
same,TGI,U251 CNS,> 100 µM
same,TGI,SNB-75 CNS,> 100 µM
same,TGI,SF-295 CNS,> 100 µM
same,TGI,DLD-1 colon,> 100 µM
same,TGI,LOX IMVI melanoma,> 100 µM
same,TGI,COLO 205 colon,> 100 µM
same,TGI,ACHN renal,> 100 µM
same,TGI,UACC-257 melanoma,> 100 µM
same,TGI,KM12 colon,> 100 µM
same,TGI,SR leukemia,> 100 µM
same,TGI,MALME-3M melanoma,> 100 µM
same,TGI,HOP-92 NSCLC,> 100 µM
same,TGI,HT29 colon,> 100 µM
same,TGI,RXF-631 renal,> 100 µM
same,TGI,SW-620 colon,> 100 µM
same,TGI,HCC-2998 colon,> 100 µM
same,TGI,HL-60(TB) leukemia,> 100 µM
same,TGI,KM20L2 colon,> 100 µM
CCOc1ccccc1N=Nc1ccc2oc(=O)c(C(=O)Nc3cccc(C)c3)cc2c1,TGI,M19-MEL melanoma,93.4 µM
same,TGI,EKVX NSCLC,95.2 µM
same,TGI,SF-539 CNS,91.1 µM
same,TGI,A498 renal,> 100 µM
same,TGI,DMS 114 small cell lung,63.4 µM
same,TGI,OVCAR-8 ovarian,86 µM
same,TGI,K-562 leukemia,88 µM
same,TGI,HCT-116 colon,51.7 µM
same,TGI,UACC-62 melanoma,> 100 µM
same,TGI,HCT-15 colon,> 100 µM
same,TGI,TK-10 renal,> 100 µM
same,TGI,NCI-H23 lung,94.7 µM
same,TGI,SK-MEL-28 melanoma,72.3 µM
same,TGI,SF-268 CNS,> 100 µM
same,TGI,A549 NSCLC,> 100 µM
same,TGI,SK-MEL-5 melanoma,32.8 µM
same,TGI,LXFL 529 NSCLC,> 100 µM
same,TGI,SNB-78 CNS,91.3 µM
same,TGI,SNB-19 CNS,99.4 µM
same,TGI,RPMI-8226 leukemia,> 100 µM
same,TGI,MOLT-4 leukemia,80.2 µM
same,TGI,SK-MEL-2 melanoma,46.9 µM
same,TGI,XF 498 CNS,> 100 µM
same,TGI,IGROV1 ovarian,> 100 µM
same,TGI,M14 melanoma,59.5 µM
same,TGI,786-0 renal,> 100 µM
same,TGI,NCI-H522 lung,57.1 µM
same,TGI,OVCAR-5 ovarian,> 100 µM
same,TGI,OVCAR-3 ovarian,62.4 µM
same,TGI,CCRF-CEM leukemia,83.8 µM
same,TGI,UO-31 renal,> 100 µM
same,TGI,SN12C renal,> 100 µM
same,TGI,U251 CNS,81.2 µM
same,TGI,OVCAR-4 ovarian,79.4 µM
same,TGI,SNB-75 CNS,> 100 µM
same,TGI,SF-295 CNS,> 100 µM
same,TGI,SK-OV-3 ovarian,> 100 µM
same,TGI,DLD-1 colon,> 100 µM
same,TGI,CAKI-1 renal,> 100 µM
same,TGI,LOX IMVI melanoma,61.6 µM
same,TGI,COLO 205 colon,71.8 µM
same,TGI,UACC-257 melanoma,> 100 µM
same,TGI,KM12 colon,> 100 µM
same,TGI,MALME-3M melanoma,> 100 µM
same,TGI,DMS 273 small cell lung,> 100 µM
same,TGI,HT29 colon,> 100 µM
same,TGI,HOP-62 NSCLC,> 100 µM
same,TGI,RXF-631 renal,> 100 µM
same,TGI,SW-620 colon,> 100 µM
same,TGI,HCC-2998 colon,96.9 µM
same,TGI,HL-60(TB) leukemia,63.3 µM
same,TGI,KM20L2 colon,> 100 µM
